ChEMBL document CHEMBL2413072, “Synthesis and in vitro anticancer studies of novel C-2 arylidene congeners of lantadenes” (2013)

Key:
Type in all cases: functional
UACC-62 = test: Growth inhibition of human UACC62 cells assessed as cell growth at 10^-4 M by sulforhodamine B assay; conditions: read-out: Activity
786-0 [1] = test: Growth inhibition of human 786-0 cells by sulforhodamine B assay
OVCAR-5 [2] = test: Growth inhibition of human OVCAR5 cells assessed as cell growth at 10^-8 M by sulforhodamine B assay; conditions: read-out: Activity
SW-620 = test: Growth inhibition of human SW620 cells assessed as cell growth at 10^-4 M by sulforhodamine B assay; conditions: read-out: Activity
MOLT-4 = test: Growth inhibition of human MOLT4 cells assessed as cell growth at 10^-7 M by sulforhodamine B assay; conditions: read-out: Activity
[3] = Growth inhibition of human NCI-ADR-RES cells assessed as cell growth at 10^-4 M by sulforhodamine B assay; conditions: read-out: Activity
SK-MEL-5 = test: Growth inhibition of human SK-MEL-5 cells assessed as cell growth at 10^-6 M by sulforhodamine B assay; conditions: read-out: Activity
SNB-75 = test: Growth inhibition of human SNB75 cells assessed as cell growth at 10^-4 M by sulforhodamine B assay; conditions: read-out: Activity
OVCAR-4 [4] = test: Growth inhibition of human OVCAR4 cells assessed as cell growth at 10^-7 M by sulforhodamine B assay; conditions: read-out: Activity
786-0 [5] = test: Growth inhibition of human 786-0 cells assessed as cell growth at 10^-8 M by sulforhodamine B assay; conditions: read-out: Activity
NCI-H322M = test: Growth inhibition of human NCI-H322M cells assessed as cell growth at 10^-4 M by sulforhodamine B assay; conditions: read-out: Activity
CCRF-CEM = test: Growth inhibition of human CCRF-CEM cells assessed as cell growth at 10^-6 M by sulforhodamine B assay; conditions: read-out: Activity
HT-29 = test: Growth inhibition of human HT-29 cells assessed as cell growth at 10^-6 M by sulforhodamine B assay; conditions: read-out: Activity
UACC-257 = test: Growth inhibition of human UACC257 cells assessed as cell growth at 10^-6 M by sulforhodamine B assay; conditions: read-out: Activity
MDA-MB-231 [6] = test: Growth inhibition of human MDA-MB-231 cells assessed as cell growth at 10^-4 M by sulforhodamine B assay; conditions: read-out: Activity
MDA-MB-468 [7] = test: Growth inhibition of human MDA-MB-468 cells assessed as cell growth at 10^-4 M by sulforhodamine B assay; conditions: read-out: Activity
BT-549 = test: Growth inhibition of human BT549 cells assessed as cell growth at 10^-8 M by sulforhodamine B assay; conditions: read-out: Activity
UO-31 = test: Growth inhibition of human UO31 cells assessed as cell growth at 10^-7 M by sulforhodamine B assay; conditions: read-out: Activity
[8] = Growth inhibition of human HCC2998 cells by sulforhodamine B assay
DU-145 = test: Growth inhibition of human DU145 cells assessed as cell growth at 10^-4 M by sulforhodamine B assay; conditions: read-out: Activity
MDA-MB-468 [9] = test: Growth inhibition of human MDA-MB-468 cells assessed as cell growth at 10^-7 M by sulforhodamine B assay; conditions: read-out: Activity
HL-60(TB) = test: Growth inhibition of human HL-60(TB) cells assessed as cell growth at 10^-7 M by sulforhodamine B assay; conditions: read-out: Activity
[10] = Growth inhibition of human HCC2998 cells assessed as cell growth at 10^-4 M by sulforhodamine B assay; conditions: HCC 2998, read-out: Activity
[11] = Growth inhibition of human NCI-ADR-RES cells by sulforhodamine B assay
SN12C = test: Growth inhibition of human SN12C cells assessed as cell growth at 10^-4 M by sulforhodamine B assay; conditions: read-out: Activity
OVCAR-4 [12] = test: Growth inhibition of human OVCAR4 cells assessed as cell growth at 10^-8 M by sulforhodamine B assay; conditions: read-out: Activity
OVCAR-5 [13] = test: Growth inhibition of human OVCAR5 cells assessed as cell growth at 10^-6 M by sulforhodamine B assay; conditions: read-out: Activity
A498 [14] = test: Growth inhibition of human A498 cells by sulforhodamine B assay
SF-295 [15] = test: Growth inhibition of human SF295 cells assessed as cell growth at 10^-7 M by sulforhodamine B assay; conditions: read-out: Activity
SF-268 [16] = test: Growth inhibition of human SF268 cells assessed as cell growth at 10^-4 M by sulforhodamine B assay; conditions: read-out: Activity
PC-3 = test: Growth inhibition of human PC3 cells assessed as cell growth at 10^-7 M by sulforhodamine B assay; conditions: read-out: Activity
SR = test: Growth inhibition of human SR cells assessed as cell growth at 10^-4 M by sulforhodamine B assay; conditions: read-out: Activity
ACHN = test: Growth inhibition of human ACHN cells assessed as cell growth at 10^-4 M by sulforhodamine B assay; conditions: read-out: Activity
KM12 = test: Growth inhibition of human KM12 cells assessed as cell growth at 10^-6 M by sulforhodamine B assay; conditions: read-out: Activity
OVCAR-3 = test: Growth inhibition of human OVCAR3 cells assessed as cell growth at 10^-7 M by sulforhodamine B assay; conditions: read-out: Activity
SF-268 [17] = test: Growth inhibition of human SF268 cells assessed as cell growth at 10^-6 M by sulforhodamine B assay; conditions: read-out: Activity
SF-295 [18] = test: Growth inhibition of human SF295 cells assessed as cell growth at 10^-8 M by sulforhodamine B assay; conditions: read-out: Activity
A498 [19] = test: Growth inhibition of human A498 cells assessed as cell growth at 10^-6 M by sulforhodamine B assay; conditions: read-out: Activity
Malme-3M = test: Growth inhibition of human MALME-3M cells by sulforhodamine B assay
U-251 = test: Growth inhibition of human U251 cells assessed as cell growth at 10^-7 M by sulforhodamine B assay; conditions: read-out: Activity
HCT-15 = test: Growth inhibition of human HCT15 cells assessed as cell growth at 10^-7 M by sulforhodamine B assay; conditions: read-out: Activity
MDA-MB-231 [20] = test: Growth inhibition of human MDA-MB-231 cells by sulforhodamine B assay
[21] = read-out: LC50 (the source's name)
[22] = read-out: pLC50 (the source's name) (converted)

SMILES: CC1(C)C[C@@H](O)[C@]2(C(=O)O)CC[C@]3(C)C(=CC[C@@H]4[C@@]5(C)C/C(=C\C=C\c6ccccc6)C(=O)C(C)(C)[C@@H]5CC[C@]43C)[C@@H]2C1
- growth at 100 µM (UACC-62): -96%
- GI50 (786-0 [1]; read-out: GI50): 3.44 µM
- CC50 (786-0 [1]; [21]): 43.1 µM
- TGI (786-0 [1]; read-out: TGI): 12.8 µM
- GI50 (786-0 [1]; read-out: pGI50 (converted)): 3.47 µM
- CC50 (786-0 [1]; [22]): 42.7 µM
- TGI (786-0 [1]; read-out: pTGI (converted)): 12.9 µM
- growth at 0.01 µM (OVCAR-5 [2]): 103%
- growth at 100 µM (SW-620): -57%
- growth at 0.1 µM (MOLT-4): 97%
- growth at 100 µM [3]: -87%
- growth at 1 µM (SK-MEL-5): 95%
- growth at 100 µM (SNB-75): -70%
- growth at 0.1 µM (OVCAR-4 [4]): 96%
- growth at 0.01 µM (786-0 [5]): 101%
- growth at 100 µM (NCI-H322M): -78%
- growth at 1 µM (CCRF-CEM): 96%
- growth at 1 µM (HT-29): 99%
- growth at 1 µM (UACC-257): 89%
- growth at 100 µM (MDA-MB-231 [6]): -93%
- growth at 100 µM (MDA-MB-468 [7]): -95%
- growth at 0.01 µM (BT-549): 101%
- growth at 0.1 µM (UO-31): 94%
- GI50 ([8]; HCC 2998, read-out: GI50): 2.95 µM
- CC50 ([8]; HCC 2998, read-out: LC50 (the source's name)): 27.9 µM
- TGI ([8]; HCC 2998, read-out: TGI): 7.55 µM
- GI50 ([8]; HCC 2998, read-out: pGI50 (converted)): 2.95 µM
- CC50 ([8]; HCC 2998, read-out: pLC50 (the source's name) (converted)): 28.2 µM
- TGI ([8]; HCC 2998, read-out: pTGI (converted)): 7.59 µM
- growth at 100 µM (DU-145): -92%
- growth at 0.1 µM (MDA-MB-468 [9]): 96%
- growth at 0.1 µM (HL-60(TB)): 108%
- growth at 100 µM [10]: -93%
- GI50 ([11]; read-out: GI50): 3.29 µM
- CC50 [11, 21]: 43.2 µM
- TGI ([11]; read-out: TGI): 14.1 µM
- GI50 ([11]; read-out: pGI50 (converted)): 3.31 µM
- CC50 [11, 22]: 43.7 µM
- TGI ([11]; read-out: pTGI (converted)): 14.1 µM
- growth at 100 µM (SN12C): -92%
- growth at 0.01 µM (OVCAR-4 [12]): 100%
- growth at 1 µM (OVCAR-5 [13]): 93%
- GI50 (A498 [14]; read-out: GI50): 2.55 µM
- CC50 (A498 [14]; [21]): 35.2 µM
- TGI (A498 [14]; read-out: TGI): 11.6 µM
- GI50 (A498 [14]; read-out: pGI50 (converted)): 2.57 µM
- CC50 (A498 [14]; [22]): 35.5 µM
- TGI (A498 [14]; read-out: pTGI (converted)): 11.5 µM
- growth at 0.1 µM (SF-295 [15]): 98%
- growth at 100 µM (SF-268 [16]): -83%
- growth at 0.1 µM (PC-3): 96%
- growth at 100 µM (SR): -24%
- growth at 100 µM (ACHN): -93%
- growth at 1 µM (KM12): 92%
- growth at 0.1 µM (OVCAR-3): 104%
- growth at 1 µM (SF-268 [17]): 90%
- growth at 0.01 µM (SF-295 [18]): 99%
- growth at 1 µM (A498 [19]): 80%
- GI50 (Malme-3M; read-out: GI50): 2.57 µM
- CC50 (Malme-3M; [21]): 59.2 µM
- TGI (Malme-3M; read-out: TGI): 7.23 µM
- GI50 (Malme-3M; read-out: pGI50 (converted)): 2.57 µM
- CC50 (Malme-3M; [22]): 58.9 µM
- TGI (Malme-3M; read-out: pTGI (converted)): 7.24 µM
- growth at 0.1 µM (U-251): 95%
- growth at 0.1 µM (HCT-15): 96%
- GI50 (MDA-MB-231 [20]; read-out: GI50): 2.02 µM
- CC50 (MDA-MB-231 [20]; [21]): 12.5 µM
- TGI (MDA-MB-231 [20]; read-out: TGI): 4.68 µM
- GI50 (MDA-MB-231 [20]; read-out: pGI50 (converted)): 2.04 µM
- CC50 (MDA-MB-231 [20]; [22]): 12.6 µM
- TGI (MDA-MB-231 [20]; read-out: pTGI (converted)): 4.68 µM
